In US9192611B2, “Formulations comprising methylthioninium chloride” (WisTa Laboratories Ltd., priority 2010, dated 2015):

Key:
[1] = background statement; cited from earlier work
[2] = Thermodynamic stability of MTC hydrates as a function of RH and temperature; settings: any T and RH; kinetically stable in a certain range

Row | Thermodynamic stability, in words [2] | SMILES | RH down to which high kinetic stability is observed [1]
1 | – | CN(C)c1ccc2nc3ccc(=[N+](C)C)cc-3sc2c1 [Form A, Methylthioninium chloride] | less than 20%
2 | not thermodynamically stable | CN(C)c1ccc2nc3ccc(=[N+](C)C)cc-3sc2c1 [Form B, Methylthioninium chloride] | –
